The record followed here is PubChem BioAssay AID248 (DTP/NCI, 2004).

In the test the test system is L1210 leukemia ip in BDF1 mice, survival T/C. Briefly: NCI In Vivo Anticancer Drug Screen. Data for tumor model L1210 Leukemia (intraperitoneal) in B6D2F1 (BDF1) mice. The settings on record: endpoint: mean survival time, higher = longer survival. In a few lines: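 Tumor was transplanted into mice, which were then dosed with test compound or vehicle alone. Survival was recorded for each group, and the treated figure was expressed relative to the control figure.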

SMILES strings stand for the structures. Values joined by “and” are separate entries in the source; they are usually repeats but may differ in a detail not shown here. Equal entries are not always repeated. Toxic doses and inconclusive results are not listed.

For `O=C(Nc1ccc(C2=NCCN2)cc1)c1cccc(C(=O)Nc2ccc(C3=NCCN3)cc2)c1`, the T/C was 114 % of control (dose: 1.0 mg/kg/injection, schedule: Q#A X Z (ip), vehicle: methylcellulose (MC)); 104 % of control (dose: 1.4 mg/kg/injection, schedule: Q01DX Z (ip), vehicle: methylcellulose (MC)); 113 % of control (dose: 1.88 mg/kg/injection, schedule: Q01DX Z (ip), vehicle: saline); 117 % of control (dose: 2.0 mg/kg/injection, schedule: Q01DX Z (ip), vehicle: methylcellulose (MC)); 94 % of control and 100 % of control (dose: 2.5 mg/kg/injection, schedule: Q01DX Z (iv), vehicle: other); 158 % of control (dose: 4.0 mg/kg/injection, schedule: Q#A X Z (ip), vehicle: methylcellulose (MC)). In addition, the T/C is 94 % of control (dose: 5.0 mg/kg/injection, schedule: Q01DX Z (iv), vehicle: other); 109 % of control (dose: 6.0 mg/kg/injection, schedule: Q03DX Z (ip), vehicle: methylcellulose (MC)); 236 % of control (dose: 6.6 mg/kg/injection, schedule: Q01DX015 (ip), vehicle: carboxymethylcellulose (CMC)); 171 % of control (dose: 7.5 mg/kg/injection, schedule: Q01DX009 (ip), vehicle: saline); 168 % of control (dose: 7.5 mg/kg/injection, schedule: Q01DX Z (ip), vehicle: methylcellulose (MC)); 97 % of control (dose: 8.0 mg/kg/injection, schedule: Q01DX004 (im), vehicle: olive oil, sesame oil, peanut oil). The T/C (dose: 8.0 mg/kg/injection, schedule: Q01DX Z (ip), vehicle: methylcellulose (MC)) is 164 % of control; the T/C (dose: 8.0 mg/kg/injection, schedule: Q#A X Z (ip), vehicle: methylcellulose (MC)) was 273 % of control; the T/C (dose: 9.9 mg/kg/injection, schedule: Q01DX015 (ip), vehicle: carboxymethylcellulose (CMC)) is 261 % of control; the T/C (dose: 10.0 mg/kg/injection, schedule: Q01DX Z (iv), vehicle: other) was 97 % of control and 100 % of control; the T/C (dose: 15.0 mg/kg/injection, schedule: Q01DX009 (ip), vehicle: saline) is 173 % of control and 206 % of control; the T/C (dose: 15.0 mg/kg/injection, schedule: Q01DX015 (ip), vehicle: carboxymethylcellulose (CMC)) is 309 % of control. Moreover, the T/C reads like this: (dose: 15.0 mg/kg/injection, schedule: Q01DX Z (ip), vehicle: carboxymethylcellulose (CMC)) 212 % of control; (dose: 15.0 mg/kg/injection, schedule: Q01DX Z (ip), vehicle: methylcellulose (MC)) 255 % of control and 369 % of control; (dose: 15.0 mg/kg/injection, schedule: Q01DX Z (ip), vehicle: saline) 214 % of control and 264 % of control; (dose: 16.0 mg/kg/injection, schedule: Q01DX004 (im), vehicle: olive oil, sesame oil, peanut oil) 100 % of control; (dose: 16.0 mg/kg/injection, schedule: Q01DX010 (ip), vehicle: saline) 169 % of control; (dose: 16.0 mg/kg/injection, schedule: Q01DX Z (ip), vehicle: methylcellulose (MC)) 331 % of control. Also, the T/C (dose: 16.0 mg/kg/injection, schedule: Q#A X Z (ip), vehicle: methylcellulose (MC)) is 350 % of control; the T/C (dose: 22.5 mg/kg/injection, schedule: Q01DX015 (ip), vehicle: carboxymethylcellulose (CMC)) was 341 % of control; the T/C (dose: 24.0 mg/kg/injection, schedule: Q03DX Z (ip), vehicle: methylcellulose (MC)) is 167 % of control; the T/C (dose: 30.0 mg/kg/injection, schedule: Q01DX009 (ip), vehicle: saline) is 184 % of control and 240 % of control; the T/C (dose: 30.0 mg/kg/injection, schedule: Q01DX Z (ip), vehicle: carboxymethylcellulose (CMC)) was 367 % of control; the T/C (dose: 30.0 mg/kg/injection, schedule: Q01DX Z (ip), vehicle: methylcellulose (MC)) was 119 % of control and 329 % of control. Moreover, the T/C is 329 % of control (dose: 30.0 mg/kg/injection, schedule: Q01DX Z (ip), vehicle: saline); 97 % of control (dose: 32.0 mg/kg/injection, schedule: Q01DX004 (im), vehicle: olive oil, sesame oil, peanut oil); 241 % of control (dose: 32.0 mg/kg/injection, schedule: Q01DX010 (ip), vehicle: saline); 347 % of control (dose: 32.0 mg/kg/injection, schedule: Q01DX Z (ip), vehicle: methylcellulose (MC)); 205 % of control (dose: 32.0 mg/kg/injection, schedule: Q01DX Z (sc), vehicle: methylcellulose (MC)); 193 % of control (dose: 32.0 mg/kg/injection, schedule: Q#A X Z (ip), vehicle: methylcellulose (MC)). For the same compound, the T/C runs as follows: (dose: 33.75 mg/kg/injection, schedule: Q01DX015 (ip), vehicle: carboxymethylcellulose (CMC)) 316 % of control; (dose: 48.0 mg/kg/injection, schedule: Q03DX Z (ip), vehicle: methylcellulose (MC)) 267 % of control; (dose: 56.0 mg/kg/injection, schedule: Q07DX Z (ip), vehicle: methylcellulose (MC)) 166 % of control; (dose: 60.0 mg/kg/injection, schedule: Q01DX009 (ip), vehicle: saline) 194 % of control and 228 % of control; (dose: 60.0 mg/kg/injection, schedule: Q01DX Z (ip), vehicle: carboxymethylcellulose (CMC)) 255 % of control; (dose: 60.0 mg/kg/injection, schedule: Q01DX Z (ip), vehicle: methylcellulose (MC)) 106 % of control. Besides, the T/C is, setting by setting: (dose: 60.0 mg/kg/injection, schedule: Q01DX Z (ip), vehicle: saline) 280 % of control; (dose: 60.0 mg/kg/injection, schedule: Q01DX Z (oral), vehicle: methylcellulose (MC)) 114 % of control; (dose: 64.0 mg/kg/injection, schedule: Q01DX004 (im), vehicle: olive oil, sesame oil, peanut oil) 114 % of control; (dose: 64.0 mg/kg/injection, schedule: Q01DX010 (ip), vehicle: saline) 276 % of control; (dose: 64.0 mg/kg/injection, schedule: Q01DX Z (sc), vehicle: methylcellulose (MC)) 317 % of control; (dose: 96.0 mg/kg/injection, schedule: Q03DX Z (ip), vehicle: methylcellulose (MC)) 352 % of control. The T/C is 156 % of control (dose: 100.0 mg/kg/injection, schedule: Q01DX001 (ip), vehicle: water); 243 % of control (dose: 112.0 mg/kg/injection, schedule: Q07DX Z (ip), vehicle: methylcellulose (MC)); 334 % of control (dose: 120.0 mg/kg/injection, schedule: Q01DX009 (ip), vehicle: saline); 89 % of control (dose: 120.0 mg/kg/injection, schedule: Q01DX Z (ip), vehicle: methylcellulose (MC)); 211 % of control (dose: 120.0 mg/kg/injection, schedule: Q01DX Z (ip), vehicle: saline); 91 % of control (dose: 120.0 mg/kg/injection, schedule: Q01DX Z (oral), vehicle: methylcellulose (MC)). The T/C was 338 % of control (dose: 128.0 mg/kg/injection, schedule: Q01DX Z (sc), vehicle: methylcellulose (MC)); 189 % of control (dose: 192.0 mg/kg/injection, schedule: Q03DX Z (ip), vehicle: methylcellulose (MC)); 194 % of control (dose: 200.0 mg/kg/injection, schedule: Q01DX001 (ip), vehicle: water); 97 % of control (dose: 240.0 mg/kg/injection, schedule: Q01DX Z (oral), vehicle: methylcellulose (MC)); 341 % of control (dose: 256.0 mg/kg/injection, schedule: Q01DX Z (sc), vehicle: methylcellulose (MC)); 247 % of control (dose: 300.0 mg/kg/injection, schedule: Q01DX001 (ip), vehicle: water). Moreover, the T/C (dose: 480.0 mg/kg/injection, schedule: Q01DX Z (oral), vehicle: methylcellulose (MC)) is 89 % of control.

For `CCCCCCCCCCCCC/C=C\CC(CC(=O)O)C(=O)Nc1cccc2cnccc12` (centres undefined), the T/C is, setting by setting: (dose: 100.0 mg/kg/injection, schedule: Q04DX003 (ip), vehicle: Klucel (hydroxypropylcellulose) (HPC)) 97 % of control; (dose: 200.0 mg/kg/injection, schedule: Q04DX003 (ip), vehicle: Klucel (hydroxypropylcellulose) (HPC)) 103 % of control; (dose: 400.0 mg/kg/injection, schedule: Q04DX003 (ip), vehicle: Klucel (hydroxypropylcellulose) (HPC)) 97 % of control.

Regarding `CCc1cccc(CC)c1NC(=O)CS`, the T/C is, setting by setting: (dose: 100.0 mg/kg/injection, schedule: Q04DX003 (ip), vehicle: saline with Tween-80) 94 % of control; (dose: 200.0 mg/kg/injection, schedule: Q04DX003 (ip), vehicle: saline with Tween-80) 95 % of control.

On to `CCC/C=C/CC1CC2CC(C1C)C2(C)C` (centres undefined), for which the T/C was 97 % of control (dose: 50.0 mg/kg/injection, schedule: Q01DX009 (ip), vehicle: other); 101 % of control (dose: 100.0 mg/kg/injection, schedule: Q01DX009 (ip), vehicle: other); 90 % of control (dose: 200.0 mg/kg/injection, schedule: Q01DX009 (ip), vehicle: other).
